In patent publication US9056886B2, “Guanosine-rich modified oligonucleotides and antiproliferative activity thereof” (APTABIO THERAPEUTICS INC., priority 2009, dated 2015):
[5FU] = 5-fluorouracil base (5-fluoro-2'-deoxyuridine unit); [GEM] = 2',2'-difluoro-2'-deoxycytidine (gemcitabine); [5FC] = 5-fluoro-2'-deoxycytidine; d = 2'-deoxy (DNA)

Tests used:
[1] = system: PC-3 cell line (prostate cancer cell); assay: Cell apoptosis (XTT method) in PC-3 cells; format: cell-based; settings: PC3 (Prostate Cancer Cells), cultured six days, XTT
Experimental: (§1) Each oligonucleotide was diluted in 10 mM Tris-HCl (pH 7.4) to a final concentration of 100 μM. The diluted solution was placed at 94° C. for 5 minutes and then quickly placed them on ice and left therein for 5 minutes. The resultant was added with 2M KCl to a final concentration of 50 mM, left at 60° C. for 3 hours and then slowly cooled down to room temperature.
(§2) One day before the experiment, 190 μL of culture, wherein PC-3 cell line(prostate cancer cell) was suspended at a concentration of 10^3-10^4/mL, was inoculated respectively into each well of a 96 well plate. The next day, 10 μL of the oligonucleotide solution prepared in Example 1 was added and cultured for six days. Six days after the inoculation, cell apoptosis rate measured by means of XTT method [JBC 1999, 26369].

[2] = system: MCF7-DX (Breast Cancer Cells), a drug-resistance cell line; assay: Cell apoptosis (XTT method) in MCF7-DX cells; format: cell-based
Experimental: [Worded in the source for another cell line; this cell line is reported under the same test.] as §1, §2
As a result, it was confirmed that the cell apoptosis rate of APT-2001, APT-2002 and APT-2003 (the novel modified oligonucleotides of the present invention), was 3-10 times higher than those of APT-4001 (positive control) and APT-4002 (negative control) as measured in terms of IC50 or IC90 (FIG. 2). […] In addition, the cell apoptotic activity of the oligonucleotides, prepared according to the present invention over the K562 CML (chronic myeloid leukemia), MV-4-11 AML (acute leukemia) cells, were also verified.

| Substance | IC50 [1] [nM] | IC50 [2] [nM] |
| --- | --- | --- |
| APT-2070: GGNGGTGGTGGTTGTGGTGGTGGTGG (SEQ. ID. NO. 45); N=2′,2′-difluoro deoxycytidine, G=2-deoxy-guanosine, H=thymidine (2',2'-difluoro deoxycytidine modified nucleosides, chemistry not fully specified) | 24 | 13 |
| APT-2071: GGTGGNGGTGGTTGTGGTGGNGGTGG (SEQ. ID. NO. 46); N=2′,2′-difluoro deoxycytidine, G=2-deoxy-guanosine, H=thymidine (2',2'-difluoro deoxycytidine modified nucleosides, chemistry not fully specified) | – | 15 |
| APT-2063: GGTGGTGGTNGNGGTGGTGG (SEQ. ID. NO. 40); N=2′,2′-difluoro deoxycytidine, G=2-deoxy-guanosine, H=thymidine (aptamer; listed as DNA, chemistry not fully specified) | 22 | 8 |
| APT-2020: GGTGGTGGNNNNGGTGGTGG (SEQ. ID. NO. 18); N=5-F-deoxyuridine, G=2-deoxy-guanosine, H=thymidine (DNA GGTGGTGGUUUUGGTGGTGG; DNA, [5FU] at 9, 10, 11, 12, backbone not given here) | 160 | 890 |
| APT-2023: GGNGGTGGNGG (SEQ. ID. NO. 21); N=5-F-deoxyuridine, G=2-deoxy-guanosine, H=thymidine (DNA GGUGGTGGUGG; DNA, [5FU] at 3, 9, backbone not given here) | 260 | 1860 |
| APT-2043: GGNGGNGGTGGTTGTGGTGGNGGNGG (SEQ. ID. NO. 33); N=5-F-deoxyuridine, G=2-deoxy-guanosine, H=thymidine (5-F-deoxyuridine modified nucleosides) | – | 600 |
| APT-2069: GGTGGTGGTGGTNGNGGTGGTGGTGG (SEQ. ID. NO. 44); N=2′,2′-difluoro deoxycytidine, G=2-deoxy-guanosine, H=thymidine (2',2'-difluoro deoxycytidine modified nucleosides, chemistry not fully specified) | – | 10 |
| APT-2035: GGTGGTGGTTNTGGTGGTGG (SEQ. ID. NO. 24); N=2′,2′-difluoro deoxycytidine, G=2-deoxy-guanosine, H=thymidine (2',2'-difluoro deoxycytidine modified nucleosides, chemistry not fully specified) | 35 | 7 |
| APT-2059: GGTGGTGGTNNTGGTGGTGG (SEQ. ID. NO. 23); N=2′,2′-difluoro deoxycytidine, G=2-deoxy-guanosine, H=thymidine (2',2'-difluoro deoxycytidine modified nucleosides, chemistry not fully specified) | 15 | 4 |
| APT-2044: GGNGGTGGTGGTTGTGGTGGTGGNGG (SEQ. ID. NO. 34); N=5-F-deoxycytidine, G=2-deoxy-guanosine, H=thymidine (DNA GGCGGTGGTGGTTGTGGTGGTGGCGG; DNA, [5FC] at 3, 24, backbone not given here; G-quadruplex forming oligonucleotide) | – | > 1000 |
| APT-2060: GGTGGTGGNTGTGGTGGTGG (SEQ. ID. NO. 37); N=2′,2′-difluoro deoxycytidine, G=2-deoxy-guanosine, H=thymidine (aptamer; listed as DNA, chemistry not fully specified) | 40 | 23 |
| APT-2068: GGTGGTGGTGGTTGNGGTGGTGGTGG (SEQ. ID. NO. 31); N=2′,2′-difluoro deoxycytidine, G=2-deoxy-guanosine, H=thymidine (2',2'-difluoro deoxycytidine modified nucleosides, chemistry not fully specified) | – | 23 |
| APT-2054: GGTGGTGGTGGTTNTGGTGGTGGTGG (SEQ. ID. NO. 30); N=2′,2′-difluoro deoxycytidine, G=2-deoxy-guanosine, H=thymidine (DNA GGTGGTGGTGGTTCTGGTGGTGGTGG; sugars from the 5' end d13 [GEM]1 d12, backbone not given here; G-quadruplex forming oligonucleotide) | < 300 | < 300 |
| APT-2033: GGTGGTGGTTTNGGTGGTGG (SEQ. ID. NO. 25); N=5-F-deoxyuridine, G=2-deoxy-guanosine, H=thymidine (DNA GGTGGTGGTTTUGGTGGTGG; aptamer; DNA, [5FU] at 12, backbone not given here) | > 10000 | 3300 |
| APT-2022: GGTGGNNNNGGTGG (SEQ. ID. NO. 20); N=5-F-deoxyuridine, G=2-deoxy-guanosine, H=thymidine (DNA GGTGGUUUUGGTGG; DNA, [5FU] at 6, 7, 8, 9, backbone not given here) | 110 | 790 |
| APT-2040: GGTGGTGGTGGTTNTGGTGGTGGTGG (SEQ. ID. NO. 30); N=5-F-deoxyuridine, G=2-deoxy-guanosine, H=thymidine (DNA GGTGGTGGTGGTTUTGGTGGTGGTGG; DNA, [5FU] at 14, backbone not given here) | – | > 1000 |
| APT-2034: GGTGGTGGTNNNGGTGGTGG (SEQ. ID. NO. 26); N=5-F-deoxyuridine, G=2-deoxy-guanosine, H=thymidine (DNA GGTGGTGGTUUUGGTGGTGG; DNA, [5FU] at 10, 11, 12, backbone not given here) | > 10000 | 1200 |
| APT-2031: GGTGGTGGTNNTGGTGGTGG (SEQ. ID. NO. 23); N=5-F-deoxyuridine, G=2-deoxy-guanosine, H=thymidine (DNA GGTGGTGGTUUTGGTGGTGG; aptamer; DNA, [5FU] at 10, 11, backbone not given here) | > 10000 | 1500 |
| APT-2042: GGNGGNGGNGGTTGTGGNGGNGGNGG (SEQ. ID. NO. 32); N=5-F-deoxyuridine, G=2-deoxy-guanosine, H=thymidine (5-F-deoxyuridine modified nucleosides) | – | 500 |
| APT-2013: NNNGGNGGNGGNGGTTGTGGNGGNGGNGG (SEQ. ID. NO. 10); N=5-F-deoxyuridine, G=2-deoxy-guanosine, H=thymidine (DNA UUUGGUGGUGGUGGTTGTGGUGGUGGUGG; DNA, [5FU] at 1, 2, 3, 6, 9, 12, 21, 24, 27, backbone not given here) | 90 | 660 |
| APT-2066: GGTGGTGGTGGTNNTGGTGGTGGTGG (SEQ. ID. NO. 29); N=2′,2′-difluoro deoxycytidine, G=2-deoxy-guanosine, H=thymidine (DNA GGTGGTGGTGGTCCTGGTGGTGGTGG; sugars from the 5' end d12 [GEM]2 d12, backbone not given here; G-quadruplex forming oligonucleotide) | 34 | 10 |
| APT-2064: GGNGGTGGTTGTGGTGGNGG (SEQ. ID. NO. 41); N=2′,2′-difluoro deoxycytidine, G=2-deoxy-guanosine, H=thymidine (DNA GGCGGTGGTTGTGGTGGCGG; sugars from the 5' end d2 [GEM]1 d14 [GEM]1 d2, backbone not given here; G-quadruplex forming oligonucleotide) | 16 | 8 |
| APT-2072: GGTGGTGGTTNTGGTGGTGGN (SEQ. ID. NO. 47); N=2′,2′-difluoro deoxycytidine, G=2-deoxy-guanosine, H=thymidine (2',2'-difluoro deoxycytidine modified nucleosides, chemistry not fully specified) | 12 | – |
| APT-2067: GGTGGTGGTGGTNGTGGTGGTGGTGG (SEQ. ID. NO. 43); N=2′,2′-difluoro deoxycytidine, G=2-deoxy-guanosine, H=thymidine (DNA GGTGGTGGTGGTCGTGGTGGTGGTGG; sugars from the 5' end d12 [GEM]1 d13, backbone not given here; G-quadruplex forming oligonucleotide) | – | 24 |
| APT-2032: GGTGGTGGTTNTGGTGGTGG (SEQ. ID. NO. 24); N=5-F-deoxyuridine, G=2-deoxy-guanosine, H=thymidine (DNA GGTGGTGGTTUTGGTGGTGG; aptamer; DNA, [5FU] at 11, backbone not given here) | > 10000 | 3600 |
| APT-2061: GGTGGTGGTNGTGGTGGTGG (SEQ. ID. NO. 38); N=2′,2′-difluoro deoxycytidine, G=2-deoxy-guanosine, H=thymidine (DNA GGTGGTGGTCGTGGTGGTGG; aptamer; sugars from the 5' end d9 [GEM]1 d10, backbone not given here; G-quadruplex forming oligonucleotide) | 41 | 22 |
